Each structure is given as a SMILES string. Structures can show the parent of a compound that is named as a salt.

Human Factor D, sequence (P00746 26-253): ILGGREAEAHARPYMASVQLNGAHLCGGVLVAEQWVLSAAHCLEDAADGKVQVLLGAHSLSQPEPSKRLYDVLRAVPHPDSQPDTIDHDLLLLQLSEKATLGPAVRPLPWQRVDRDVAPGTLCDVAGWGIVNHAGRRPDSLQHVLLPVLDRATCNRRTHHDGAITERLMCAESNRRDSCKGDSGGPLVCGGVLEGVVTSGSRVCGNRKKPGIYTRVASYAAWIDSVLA

The first test has as its target Human Factor D (Homo sapiens (Human), UniProt P00746). In words: Human Factor D assay (Z-L-Lys-SBzl / DTNB, absorbance at 405 nm). It counts as biochemical. Particulars: Table 3; Human Factor D 80 nM, assay of Example 13. The protocol: Human Factor D (purified from human serum, Complement Technology, Inc.) at 80 nM final concentration was incubated with test compound at various concentrations for 5 minutes at room temperature in 50 mM Tris, 1M NaCl, pH 7.5. A synthetic substrate Z-L-Lys-SBzl and DTNB (Ellman's reagent) were added to final concentrations of 100 μM each. […] IC50 values were calculated by nonlinear regression of complement Factor D reaction rates as a function of test compound concentration.
Regarding `NC(=O)c1nn(CC(=O)N2C[C@H](F)C[C@H]2C(=O)Nc2cccc(-c3ccc4nonc4c3)c2F)c2ccccc12` [Compound 68, 1-(2-((2S,4R)-2-(3-(benzo[c][1,2,5]oxadiazol-5-yl)-2-fluorophenyl-carbamoyl)-4-fluoropyrrolidin-1-yl)-2-oxoethyl)-1H-indazole-3-carboxamide], the IC50 is less than 1000 nM.

Compound `CO/N=C(\C)c1ccc(Cl)c(-c2cccc(NC(=O)[C@@H]3C[C@@H](F)CN3C(=O)Cn3nc(C(N)=O)c4ccccc43)c2F)c1` [Compound 8, 1-(2-((2S,4R)-2-((2′-Chloro-2-fluoro-5′-((E)-1-(methoxyimino)ethyl)-[1,1′-biphenyl]-3-yl)carbamoyl)-4-fluoropyrrolidin-1-yl)-2-oxoethyl)-1H-indazole-3-carboxamide] gave an IC50 of less than 1000 nM.

On to `NC(=O)c1cc(CC(=O)N2C[C@H](F)C[C@H]2C(=O)Nc2cccc(-c3ccccc3Cl)c2F)ccc1Cl` [Compound 22, (2S,4R)-1-(2-(3-carbamoyl-4-chlorophenyl)acetyl)-N-(2′-chloro-2-fluorobiphenyl-3-yl)-4-fluoropyrrolidine-2-carboxamide], for which the IC50 was 1000 to 10000 nM.

Compound `NC(=O)c1nn(CC(=O)N2C[C@H](F)C[C@H]2C(=O)Nc2cccc(-c3ccc4nc(F)[nH]c4c3Cl)c2F)c2ccccc12` [Compound 44, 1-(2-((2S,4R)-2-(3-(7-chloro-2-fluoro-1H-benzo[d]imidazol-6-yl)-2-fluorophenyl-carbamoyl)-4-fluoropyrrolidin-1-yl)-2-oxoethyl)-1H-indazole-3-carboxamide] returned an IC50 of less than 1000 nM.

Take `CC(=O)n1cc(CC(=O)N2C[C@H](F)C[C@H]2C(=O)Nc2cccc(-c3ccccc3Cl)c2F)c2ccc(-c3cnc(C)nc3)cc21` [Compound 60, (2S,4R)-1-(2-(1-acetyl-6-(2-methylpyrimidin-5-yl)-1H-indol-3-yl)acetyl)-N-(2′-chloro-2-fluorobiphenyl-3-yl)-4-fluoropyrrolidine-2-carboxamide]: the IC50 is less than 1000 nM.

The compound `CC(=O)c1cn(CC(=O)N(C)[C@H](C(=O)Nc2cccc(-c3ccccc3Cl)c2F)[C@@H](C)O)c2ccccc12` [Compound 15, (2S,3R)-2-(2-(3-acetyl-1H-indol-1-yl)-N-methylacetamido)-N-(2′-chloro-2-fluorobiphenyl-3-yl)-3-hydroxybutanamide] returned a concentration for half-maximal inhibition (IC50) of 1000 to 10000 nM.

Compound `NC(=O)c1nn(CC(=O)N2C[C@H](F)C[C@H]2C(=O)Nc2cccc(-c3n[nH]c4ccsc34)c2F)c2ccccc12` [Compound 71, 1-(2-((2S,4R)-4-Fluoro-2-((2-fluoro-3-(1H-thieno[3,2-c]pyrazol-3-yl)phenyl)carbamoyl)pyrrolidin-1-yl)-2-oxoethyl)-1H-indazole-3-carboxamide] showed an IC50 of less than 1000 nM.

`NC(=O)c1nn(CC(=O)N2C[C@H](F)C[C@H]2C(=O)Nc2cccc(-c3ccc4ocnc4c3)c2F)c2ccccc12` [Compound 57, 1-(2-((2S,4R)-2-(3-(benzo[d]oxazol-5-yl)-2-fluorophenyl-carbamoyl)-4-fluoropyrrolidin-1-yl)-2-oxoethyl)-1H-indazole-3-carboxamide] came in with an IC50 of less than 1000 nM.

As for `NC(=O)c1nn(CC(=O)N2C[C@H](F)C[C@H]2C(=O)Nc2cccc(-c3ccccc3Cl)c2F)c2cc(Cn3cc(C4CC4)nn3)sc12` [Compound 19, 1-(2-((2S,4R)-2-((2′-Chloro-2-fluoro-[1,1′-biphenyl]-3-yl)carbamoyl)-4-fluoropyrrolidin-1-yl)-2-oxoethyl)-5-((4-cyclopropyl-1H-1,2,3-triazol-1-yl)methyl)-1H-thieno[3,2-c]pyrazole-3-carboxamide], the IC50 is less than 1000 nM.

`Cc1cc2c(s1)c(C(N)=O)nn2CC(=O)N1C[C@H](F)C[C@H]1C(=O)Nc1cccc(-c2cc(C(N)=O)ccc2Cl)c1F` [Compound 49, 1-(2-((2S,4R)-2-(5′-carbamoyl-2′-chloro-2-fluorobiphenyl-3-ylcarbamoyl)-4-fluoropyrrolidin-1-yl)-2-oxoethyl)-5-methyl-1H-thieno[3,2-c]pyrazole-3-carboxamide] yielded an IC50 of less than 1000 nM.

With `NC(=O)c1nn(CC(=O)N2C[C@H](F)C[C@H]2C(=O)Nc2cccc(-c3ccc4nc(C(=O)O)[nH]c4c3Cl)c2F)c2ccccc12` [Compound 62, 6-(3-((2S,4R)-1-(2-(3-carbamoyl-1H-indazol-1-yl)acetyl)-4-fluoropyrrolidine-2-carboxamido)-2-fluorophenyl)-7-chloro-1H-benzo[d]imidazole-2-carboxylic acid], the IC50 is less than 1000 nM.

Compound `O=C(Nc1cccc(-c2ccccc2Cl)c1F)[C@@H]1C[C@@H](F)CN1C(=O)Cc1cccc(Cl)c1` [Compound 42] came in with an IC50 of less than 1000 nM.

For the compound `CC(=O)n1cc(CC(=O)N2C[C@H](F)C[C@H]2C(=O)Nc2cccc(Br)n2)c2ccc(-c3cnc(C)nc3)cc21` [Compound 61, (2S,4R)-1-(2-(1-acetyl-6-(2-methylpyrimidin-5-yl)-1H-indol-3-yl)acetyl)-N-(6-bromopyridin-2-yl)-4-fluoropyrrolidine-2-carboxamide], the IC50 was less than 1000 nM.

Take `NC(=O)c1nn(CC(=O)N2C[C@H](F)C[C@H]2C(=O)Nc2cccc(-c3ccc4c(c3Cl)NC(=O)CN4)c2F)c2ccccc12` [Compound 59, 1-(2-((2S,4R)-2-((3-(5-Chloro-3-oxo-1,2,3,4-tetrahydroquinoxalin-6-yl)-2-fluorophenyl)carbamoyl)-4-fluoropyrrolidin-1-yl)-2-oxoethyl)-1H-indazole-3-carboxamide]: the IC50 was less than 1000 nM.

On to `NC(=O)c1ccc(Cl)c(-c2cccc(NC(=O)[C@@H]3C[C@@H](F)CN3C(=O)Cn3nc(C(N)=O)c4sc(C(F)(F)F)cc43)c2F)c1` [Compound 39, 1-(2-((2S,4R)-2-((5′-Carbamoyl-2′-chloro-2-fluoro-[1,1′-biphenyl]-3-yl)carbamoyl)-4-fluoropyrrolidin-1-yl)-2-oxoethyl)-5-(trifluoromethyl)-1H-thieno[3,2-c]pyrazole-3-carboxamide], for which the IC50 was less than 1000 nM.

`CC(C)(C)OC(=O)N=S(C)(=O)c1cccc(-c2cccc(NC(=O)[C@@H]3C[C@@H](F)CN3C(=O)Cn3nc(C(N)=O)c4ccccc43)c2F)c1` (stereo partly drawn) [Compound 64, tert-butyl ((3′-((2S,4R)-1-(2-(3-carbamoyl-1H-indazol-1-yl)acetyl)-4-fluoropyrrolidine-2-carboxamido)-2′-fluoro-[1,1′-biphenyl]-3-yl)(methyl)(oxo)-[…]^6-sulfanylidene)-[…]^4-azanecarboxylate] had an IC50 of 1000 to 10000 nM.

`CC(=O)c1nc2ccc(-c3cccc(NC(=O)[C@@H]4C[C@@H](F)CN4C(=O)Cn4nc(C(N)=O)c5ccccc54)c3F)c(Cl)c2[nH]1` [Compound 18, 1-(2-((2S,4R)-2-(3-(2-acetyl-7-chloro-1H-benzo[d]imidazol-6-yl)-2-fluorophenyl-carbamoyl)-4-fluoropyrrolidin-1-yl)-2-oxoethyl)-1H-indazole-3-carboxamide]: the 50% inhibitory concentration (IC50) was less than 1000 nM.

Staying with this test, now noted: Table 4; Human Factor D 80 nM, assay of Example 13.
For the compound `NC(=O)c1nn(CC(=O)N2C[C@H](F)C[C@H]2C(=O)Nc2cccc(-c3ccc4c(c3)C(=O)NC4)c2F)c2ccccc12` [Compound 91, 1-(2-((2S,4R)-4-fluoro-2-((2-fluoro-3-(3-oxoisoindolin-5-yl)phenyl)carbamoyl)pyrrolidin-1-yl)-2-oxoethyl)-1H-indazole-3-carboxamide], the IC50 is less than 1000 nM.

The compound `COC(=O)c1cc(-c2cccc(NC(=O)[C@@H]3C[C@@H](F)CN3C(=O)Cn3nc(C(N)=O)c4ccccc43)c2F)cc2[nH]c(NC(=O)OC(C)(C)C)nc12` [Compound 75, methyl 2-((tert-butoxycarbonyl)amino)-6-(3-((2S,4R)-1-(2-(3-carbamoyl-1H-indazol-1-yl)acetyl)-4-fluoropyrrolidine-2-carboxamido)-2-fluorophenyl)-1H-benzo[d]imidazole-4-carboxylate] showed an IC50 of more than 10000 nM.

As to `CC(=O)c1nn(CC(=O)N2C[C@H](F)C[C@H]2C(=O)Nc2cccc(-c3ccc4c(c3)CCC(=O)N4)c2F)c2ccccc12` [Compound 82, (2S,4R)-1-(2-(3-acetyl-1H-indazol-1-yl)acetyl)-4-fluoro-N-(2-fluoro-3-(2-oxo-1,2,3,4-tetrahydroquinolin-6-yl)phenyl)pyrrolidine-2-carboxamide], the IC50 was less than 1000 nM.

For `CC(=O)c1nn(CC(=O)N2C[C@H](F)C[C@H]2C(=O)Nc2cccc(-c3ccc4ncn(CCN)c4c3Cl)c2F)c2ccccc12` [Compound 84, (2S,4R)-1-(2-(3-acetyl-1H-indazol-1-yl)acetyl)-N-(3-(1-(2-aminoethyl)-7-chloro-1H-benzo[d]imidazol-6-yl)-2-fluorophenyl)-4-fluoropyrrolidine-2-carboxamide], the IC50 was in the range of 1000 to 10000 nM.

Compound `CC(=O)c1nn(CC(=O)N2C[C@H](F)C[C@H]2C(=O)Nc2cccc(-c3cc(C(=O)NC#N)ccc3Cl)c2F)c2ccccc12` [Compound 95, (2S,4R)-1-(2-(3-acetyl-1H-indazol-1-yl)acetyl)-N-(2′-chloro-5′-(cyanocarbamoyl)-2-fluoro-[1,1′-biphenyl]-3-yl)-4-fluoropyrrolidine-2-carboxamide] gave an IC50 of less than 1000 nM.

Take `NC(=O)c1nn(CC(=O)N2C[C@H](F)C[C@H]2C(=O)Nc2cccc(-c3cc(C(=O)O)c4nc(N)[nH]c4c3)c2F)c2ccccc12` [Compound 77, 2-Amino-6-(3-((2S,4R)-1-(2-(3-carbamoyl-1H-indazol-1-yl)acetyl)-4-fluoropyrrolidine-2-carboxamido)-2-fluorophenyl)-1H-benzo[d]imidazole-4-carboxylic acid hydrochloride]: the IC50 fell in the range of 1000 to 10000 nM.

In the case of `NC(=O)c1nn(CC(=O)N2C[C@H](F)C[C@H]2C(=O)Nc2cccc(-c3ccc4c(c3)NC(=O)C4)c2F)c2ccccc12` [Compound 88, 1-(2-((2S,4R)-4-fluoro-2-((2-fluoro-3-(2-oxoindolin-6-yl)phenyl)carbamoyl)pyrrolidin-1-yl)-2-oxoethyl)-1H-indazole-3-carboxamide], the IC50 was less than 1000 nM.
